From US6914045B2, “Glycopeptide antibiotics” (Wyeth Holdings Corporation, priority 2001, dated 2005)
Converted amounts (≈) assume the structure as drawn.

How the values were obtained:
Assay in all cases: in vitro antibacterial evaluation, MIC by broth dilution
Assay type in all cases: cell-based
[1] = system: Escherichia coli; conditions: 18 hours at 35° C.
Method in brief: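 Broth dilution in Muller-Hinton II medium per NCCLS standard M7-A2, with an inoculum of 5×10^5 CFU/mL and antibiotic tested over 64-0.06 μg/mL. MIC was taken as the lowest concentration inhibiting visible growth.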

[2] = system: Enterococcus sp.; conditions: broth dilution, 18 hours at 35° C.
Experimental: (§1) Methods for in vitro Antibacterial Evaluation (Table 1)
(§2) The minimum inhibitory concentration (MIC), the lowest concentration of the antibiotic which inhibits growth of the test organism, is determined by the broth dilution method using Muller-Hinton II […] (Baltimore Biological Laboratories) following the recommendations of the National Committee for Clinical Laboratory Standards [Methods for dilution antimicrobial susceptibility tests for bacteria that grow aerobically, approved standard M7-A2, National Committee for Clinical Laboratory Standards, Villanova, Pa.].
(§3) An inoculum level of 5×10^5 CFU/mL, and a range of antibiotic concentrations (64-0.06 μg/mL) is used. […] The test organisms include a spectrum of Gram-positive bacteria comprised of Staphylococcus sp., Streptococcus sp. and Enterococcus sp. These organisms include recent clinical isolates that are resistant to methicillin, penicillin and/or vancomycin.

[3] = system: Staphylococcus sp.
Experimental: as §1, §2, §3

[4] = system: Streptococcus sp.; conditions: broth dilution, 18 hours at 35° C.
Experimental: as §1, §2, §3

[5] = Enterococcus faecalis (ATCC 29212)
[6] = Enterococcus faecalis (GC 4552)
[7] = Enterococcus faecalis (GC 4553)
[8] = Enterococcus faecalis (GC 4554)
[9] = broth dilution, 18 hours at 35° C.
[10] = strain ATCC 29213; broth dilution, 18 hours at 35° C.
[11] = strain GC 1131; broth dilution, 18 hours at 35° C.
[12] = strain GC 4541; broth dilution, 18 hours at 35° C.
[13] = strain GC 4542; broth dilution, 18 hours at 35° C.
[14] = strain GC 4544; broth dilution, 18 hours at 35° C.
[15] = strain GC 4545; broth dilution, 18 hours at 35° C.

## CCCC(CCC)C(=O)OCC1OC(Oc2ccc(CC3NC(=O)C(C(C)c4ccccc4)NC(=O)CNC(=O)C(CO)NC(=O)C(C(O)C4CNC(=N)N4C4OC(CO)C(O)C(O)C4O)NC(=O)C(C(O)C4CNC(=N)N4)NC3=O)cc2)C(O)C(O)C1OC1OC(CO)C(O)C(O)C1O (stereo not drawn) [Example 99b, Cyclo[glycyl-β-methylphenylalanyl-O-[4-O-hexopyranosyl-6-O-(2-propylpentanoyl)hexopyranosyl]tyrosyl-3-(2-iminoimidazolidin-4-yl)seryl-3-(3-hexopyranosyl-2-iminoimidazolidin-4-yl)serylseryl]]
[1]
  MIC Escherichia coli (ATCC 25922): >64 µg/mL
[2]; Enterococcus avium (GC 4558)
  MIC Enterococcus avium (GC 4558): 16 µg/mL (≈ 11.3 µM)
[2]; [5]
  MIC Enterococcus faecalis (ATCC 29212): 16 µg/mL (≈ 11.3 µM)
[2]; Enterococcus faecalis (GC 2242)
  MIC Enterococcus faecalis (GC 2242): 16 µg/mL (≈ 11.3 µM)
[2]; [6]
  MIC Enterococcus faecalis (GC 4552): 32 µg/mL (≈ 22.5 µM)
[2]; [7]
  MIC Enterococcus faecalis (GC 4553): 16 µg/mL (≈ 11.3 µM)
[2]; [8]
  MIC Enterococcus faecalis (GC 4554): 32 µg/mL (≈ 22.5 µM)
[2]; Enterococcus faecium (GC 2243)
  MIC Enterococcus faecium (GC 2243): 16 µg/mL (≈ 11.3 µM)
[2]; Enterococcus faecium (GC 4556)
  MIC Enterococcus faecium (GC 4556): 16 µg/mL (≈ 11.3 µM)
[2]; Enterococcus faecium (GC 4557)
  MIC Enterococcus faecium (GC 4557): 4 µg/mL (≈ 2.81 µM)
[2]
  MIC Enterococcus avium (GC 4558): 16 µg/mL (≈ 11.3 µM)
  MIC Enterococcus faecalis (ATCC 29212): 16 µg/mL (≈ 11.3 µM)
  MIC Enterococcus faecalis (GC 2242): 16 µg/mL (≈ 11.3 µM)
  MIC Enterococcus faecalis (GC 4552): 32 µg/mL (≈ 22.5 µM)
  MIC Enterococcus faecalis (GC 4553): 16 µg/mL (≈ 11.3 µM)
  MIC Enterococcus faecalis (GC 4554): 32 µg/mL (≈ 22.5 µM)
  MIC Enterococcus faecium (GC 2243): 16 µg/mL (≈ 11.3 µM)
  MIC Enterococcus faecium (GC 4556): 16 µg/mL (≈ 11.3 µM)
  MIC Enterococcus faecium (GC 4557): 4 µg/mL (≈ 2.81 µM)
[3]; [9]
  MIC Coagulase Negative Staphylococcus (GC 4547): 4 µg/mL (≈ 2.81 µM)
  MIC Coagulase Negative Staphylococcus (GC 4548): 4 µg/mL (≈ 2.81 µM)
  MIC Coagulase Negative Staphylococcus (GC 4549): 2 µg/mL (≈ 1.41 µM)
  MIC Coagulase Negative Staphylococcus (GC 4551): 8 µg/mL (≈ 5.63 µM)
  MIC Coagulase Negative Staphylococcus (ID-3941): 2 µg/mL (≈ 1.41 µM)
  MIC Staphylococcus aureus-SMITH (GC 4543): 4 µg/mL (≈ 2.81 µM)
  MIC Staphylococcus haemolyticus (GC 4546): 4 µg/mL (≈ 2.81 µM)
[3]; broth dilution, 18 hours at 35° C.; strain GC 4546
  MIC Staphylococcus haemolyticus (GC 4546): 4 µg/mL (≈ 2.81 µM)
[3]; broth dilution, 18 hours at 35° C.; strain GC 4547
  MIC Coagulase Negative Staphylococcus (GC 4547): 4 µg/mL (≈ 2.81 µM)
[3]; broth dilution, 18 hours at 35° C.; strain GC 4548
  MIC Coagulase Negative Staphylococcus (GC 4548): 4 µg/mL (≈ 2.81 µM)
[3]; broth dilution, 18 hours at 35° C.; strain GC 4549
  MIC Coagulase Negative Staphylococcus (GC 4549): 2 µg/mL (≈ 1.41 µM)
[3]; broth dilution, 18 hours at 35° C.; strain GC 4551
  MIC Coagulase Negative Staphylococcus (GC 4551): 8 µg/mL (≈ 5.63 µM)
[3]; broth dilution, 18 hours at 35° C.; strain ID-3941
  MIC Coagulase Negative Staphylococcus (ID-3941): 2 µg/mL (≈ 1.41 µM)
[3]; broth dilution, 18 hours at 35° C.; strain SMITH GC 4543
  MIC Staphylococcus aureus-SMITH (GC 4543): 4 µg/mL (≈ 2.81 µM)
[3]; [10]
  MIC Staphylococcus aureus (ATCC 29213): 4 µg/mL (≈ 2.81 µM)
[3]; [11]
  MIC Staphylococcus aureus (GC 1131): 4 µg/mL (≈ 2.81 µM)
[3]; [12]
  MIC Staphylococcus aureus (GC 4541): 4 µg/mL (≈ 2.81 µM)
[3]; [13]
  MIC Staphylococcus aureus (GC 4542): 4 µg/mL (≈ 2.81 µM)
[3]; [14]
  MIC Staphylococcus aureus (GC 4544): 4 µg/mL (≈ 2.81 µM)
[3]; [15]
  MIC Staphylococcus aureus (GC 4545): 4 µg/mL (≈ 2.81 µM)
[4]; Streptococcus agalactiae (GC 4564)
  MIC Streptococcus agalactiae (GC 4564): 2 µg/mL (≈ 1.41 µM)
[4]; Streptococcus pneumoniae (GC 4565)
  MIC Streptococcus pneumoniae (GC 4565): <0.5 µg/mL
[4]; Streptococcus pyogenes (ID-3187)
  MIC Streptococcus pyogenes (ID-3187): 1 µg/mL (≈ 0.703 µM)
[4]
  MIC Streptococcus agalactiae (GC 4564): 2 µg/mL (≈ 1.41 µM)
  MIC Streptococcus pneumoniae (GC 4565): <0.5 µg/mL
  MIC Streptococcus pyogenes (ID-3187): 1 µg/mL (≈ 0.703 µM)

## CC(C1CCCCC1)C1NC(=O)CNC(=O)C(CO)NC(=O)C(C(O)C2CNC(=N)N2C2OC(CO)C(O)C(O)C2O)NC(=O)C(C(O)C2CNC(=N)N2)NC(=O)C(C[C@H]2CC[C@@H](O)CC2)NC1=O (stereo partly drawn) [Example 54, Cyclo[3-(syn-4-hydroxycyclohexyl)alanyl-3-(2-ininoimidazolidin-4-yl)seryl-3-(3-hexopyranosyl-2-iminoimidazolidin-4-yl)serylserylglycyl-3-cyclohexyl-2-aminobutanoyl]]
[1]; strain ATCC 25922, broth dilution
  MIC Escherichia coli (ATCC 25922): >128 µg/mL
[1]; strain GC 4559, broth dilution
  MIC Escherichia coli (GC 4559): >128 µg/mL
[1]; strain GC 4560, broth dilution
  MIC Escherichia coli (GC 4560): >128 µg/mL
[2]; Enterococcus avium (GC 4558)
  MIC Enterococcus avium (GC 4558): 128 µg/mL (≈ 130 µM)
[2]; [5]
  MIC Enterococcus faecalis (ATCC 29212): >128 µg/mL
[2]; [6]
  MIC Enterococcus faecalis (GC 4552): >128 µg/mL
[2]; [7]
  MIC Enterococcus faecalis (GC 4553): >128 µg/mL
[2]; [8]
  MIC Enterococcus faecalis (GC 4554): >128 µg/mL
[2]; Enterococcus faecalis (GC 6189)
  MIC Enterococcus faecalis (GC 6189): >128 µg/mL
[2]; Enterococcus faecium (GC 2243)
  MIC Enterococcus faecium (GC 2243): >128 µg/mL
[2]; Enterococcus faecium (GC 4556)
  MIC Enterococcus faecium (GC 4556): >128 µg/mL
[2]; Enterococcus faecium (GC 4557)
  MIC Enterococcus faecium (GC 4557): 128 µg/mL (≈ 130 µM)
[2]; strain ATCC 29212
  MIC Enterococcus faecalis (ATCC 29212): >128 µg/mL
[2]; strain GC 2242
  MIC Enterococcus faecalis (GC 2242): >128 µg/mL
[2]; strain GC 2243
  MIC Enterococcus faecium (GC 2243): >128 µg/mL
[2]; strain GC 2691
  MIC Enterococcus faecalis (GC 2691): >128 µg/mL
[2]; strain GC 3059
  MIC Enterococcus faecalis (GC 3059): >128 µg/mL
[2]; strain GC 4552
  MIC Enterococcus faecalis (GC 4552): >128 µg/mL
[2]; strain GC 4553
  MIC Enterococcus faecalis (GC 4553): >128 µg/mL
[2]; strain GC 4554
  MIC Enterococcus faecalis (GC 4554): >128 µg/mL
[2]; strain GC 4556
  MIC Enterococcus faecium (GC 4556): >128 µg/mL
[2]; strain GC 4557
  MIC Enterococcus faecium (GC 4557): 128 µg/mL (≈ 130 µM)
[2]; strain GC 4558
  MIC Enterococcus avium (GC 4558): 128 µg/mL (≈ 130 µM)
[2]; strain GC 6189
  MIC Enterococcus faecalis (GC 6189): >128 µg/mL
[3]; [10]
  MIC Staphylococcus aureus (ATCC 29213): >128 µg/mL
[3]; [11]
  MIC Staphylococcus aureus (GC 1131): >128 µg/mL
[3]; strain GC 3051; broth dilution, 18 hours at 35° C.
  MIC Staphylococcus aureus (GC 3051): >128 µg/mL
[3]; strain GC 3053; broth dilution, 18 hours at 35° C.
  MIC Staphylococcus aureus (GC 3053): >128 µg/mL
[3]; [12]
  MIC Staphylococcus aureus (GC 4541): >128 µg/mL
[3]; [13]
  MIC Staphylococcus aureus (GC 4542): >128 µg/mL
[3]; strain GC 4543; broth dilution, 18 hours at 35° C.
  MIC Staphylococcus aureus-SMITH (GC 4543): >128 µg/mL
[3]; [14]
  MIC Staphylococcus aureus (GC 4544): >128 µg/mL
[3]; [15]
  MIC Staphylococcus aureus (GC 4545): >128 µg/mL
[3]; strain GC 4546; broth dilution, 18 hours at 35° C.
  MIC Staphylococcus haemolyticus (GC 4546): >128 µg/mL
[3]; strain GC 4547; broth dilution, 18 hours at 35° C.
  MIC Coagulase Negative Staphylococcus (GC 4547): >128 µg/mL
[3]; strain GC 4548; broth dilution, 18 hours at 35° C.
  MIC Coagulase Negative Staphylococcus (GC 4548): >128 µg/mL
[3]; strain GC 4549; broth dilution, 18 hours at 35° C.
  MIC Coagulase Negative Staphylococcus (GC 4549): >128 µg/mL
[3]; strain GC 4551; broth dilution, 18 hours at 35° C.
  MIC Coagulase Negative Staphylococcus (GC 4551): >128 µg/mL
[4]; strain ATCC 6301
  MIC Streptococcus pneumoniae (ATCC 6301): >128 µg/mL
[4]; strain GC 1894
  MIC Streptococcus pneumoniae (GC 1894): 128 µg/mL (≈ 130 µM)
[4]; strain GC 4563
  MIC Streptococcus pyogenes (GC 4563): >128 µg/mL
[4]; strain GC 4564
  MIC Streptococcus agalactiae (GC 4564): >128 µg/mL
[4]; strain GC 4565
  MIC Streptococcus pneumoniae (GC 4565): >128 µg/mL
